Read-outs that look alike come from different tables or passages of the source.
Columns and labels:
[1] = system: chicken erythrocyte genomic DNA; experiment: Spectrophotometry of complexation with genomic DNA
Description: Chicken erythrocyte genomic DNA (Reanal, Budapest, Hungary) solution was prepared by dissolving 6 mg of DNA in 3 mL of Tris-EDTA (TE) buffer and allowed to stay for 2 days at a temperature of +2 °C until clear. The concentration of the initial DNA solution was measured using a nanodrop spectrophotometer (DeNovix, Wilmington, DE, USA). A series of DNA concentrations were prepared in TE buffer (60, 30, 20, 15 μg/mL). […] As a control, an equivalent amount of TE buffer in place of the genomic DNA was added to the samples. […] The results were then computed and statistically analyzed using GraphPad Prism software 8.0.1.

[2] = Neutralization of the ABTS radical; conditions: for EC50: 37 °C, 15 min, 738 nm, read-out: EC50 of half-maximal ABTS radical inhibition; for Trolox Equivalent Antioxidant Capacity (TEAC): ABTS radical neutralization, relative to Trolox
Description: Initially, an ABTS solution was prepared in water at a concentration of 7 mM. Subsequently, the radical cation ABTS^•+ was generated by mixing the original ABTS solution with 2.45 mM ammonium persulfate at a 1:1 ratio. This mixture was then allowed to stand in the dark at room temperature for 12–16 h before use. The diluted ABTS^•+ solution was prepared in a methanol/water mixture (1:1) reaching an optical density of 0.7 units at 738 nm (~0.7 mM). Next, various concentrations of compounds (ranging from 1000, 500, 250, 125, 62.5, 31.2, 15.6, to 7.8 μM) in a volume of 130 µL in a methanol/water mixture (1:1) were mixed with the ABTS radical cation solution (~0.7 mM) in a volume of 130 µL. The mixture was then incubated at 37 °C in a water bath for 15 min. The optical density was measured at 738 nm using the Infinite M200 PRO (TECAN, Zürich, Switzerland) plate reader. The percentage inhibition of ABTS absorption relative to the control was calculated. A percent inhibition vs. antioxidant concentration graph was plotted and the concentration of the antioxidant that suppresses the optical density of the ABTS radical by 50% (EC50) was determined. The Trolox Equivalent Antioxidant Capacity (TEAC) was also calculated.

[3] = system: HCT-116 and MCF-7 cells; experiment: Confocal microscopy of intracellular localization; format: cell-based, human; conditions: DOX-1 and DOX-2 5 μM, 24 h; DOX 50 μM, 2 h
Description: A total of 24 h later, the studied compounds DOX-1 and DOX-2 at a concentration of 5 µM were added. Following another 24 h incubation period, Hoechst 33342 (Roche) was added, reaching a final concentration of 1.5 µg/mL. After 15 min, the dye-containing media was removed, and DBBS was added. The plate was subsequently analyzed using confocal microscopy (Zeiss LSM800, Jena, Germany).

[4] = system: PC-3; experiment: MTS cytotoxicity assay; conditions: for IC50: Homo sapiens; for Selectivity index IC50 HSF/IC50 PC-3: MTS assay, from the mean IC50 value for HSF cells
Excerpt: (§1) The study utilized human cell lines including PC-3 (human prostate adenocarcinoma), HSF (primary human skin fibroblasts), MDA-MB-231 (estrogen-negative breast adenocarcinoma), MCF-7 (estrogen-positive breast adenocarcinoma), MSC (multipotent stem cells derived from adipose tissue), SF-539 (brain gliosarcoma), SNB-19 (glioblastoma), A-498 (kidney carcinoma), M-14 (human melanoma), NCI-H322-M (primary bronchioalveolar carcinoma), HCT-15 (colon adenocarcinoma), and HCT-116 (colorectal intestinal carcinoma). We also used immortalized C2C12 mouse myoblasts (ATCC—CRL-1772). Cancer cell lines were obtained from the ATCC collection and generously provided by the Fox Chase Cancer Center (Philadelphia, USA). Conditionally normal cells, including skin fibroblasts and multipotent stem cells, were isolated by our group from postoperative materials (skin and subcutaneous fat) obtained from a conditionally healthy donor. Reagents and consumables for cell culture work were purchased from PanEco (Russia).
(§2) The cytotoxicity of the compounds under study was assessed using MTS assay on cell cultures. Cells were seeded into 96-well plates at a concentration of 10,000–20,000 cells/mL. After 24 h, gradient concentrations of the compounds were added to the culture medium and the plates were incubated for 72 h. Subsequently, the culture medium was replaced with MTS reagents (Sigma-Aldrich, Burlington, MA, USA) (MTS:PMS (0.18:0.0092 mg/mL)) and dissolved in phenol-free RPMI 1640 medium. After 2 h of incubation, the resulting water-soluble formazan was measured using the TECAN Infinite M200 Pro microplate reader at wavelengths of 555/750 nm. As a control, equivalent volumes of the solvents in which each compound was dissolved (dH2O/DMSO) were used. To calculate the percentage of viable cells relative to the control, which was considered 100%, dose-response curves were plotted against the logarithm of the compound concentration. The concentration of the compound at which cell growth is inhibited by 50% relative to the control was taken as the inhibitory concentration IC50 and calculated using Origin Pro software 8.0.1. The study was conducted in triplicates and in three independent repetitions.

[5] = system: HCT-116; experiment: MTS cytotoxicity assay; conditions: for IC50: Homo sapiens; for IC25, HCT-116 / IC75, HCT-116: test concentration selected based on MTS data; for Times reduced cytotoxicity compared to doxorubicin, HCT-116 / Selectivity index IC50 HSF/IC50 HCT-116: MTS assay; for Selectivity index IC50 HSF/IC50 HCT-116: from the mean IC50 value for HSF cells
Excerpt: as §1, §2

[6] = system: C2C12 (immortalized mouse myoblasts); experiment: MTS cytotoxicity assay; conditions: for Inhibition of C2C12 cell proliferation: MTS assay, sufficiently high concentrations
Excerpt: as §1, §2

[7] = system: SF-539; experiment: MTS cytotoxicity assay; conditions: Homo sapiens, SF-539, 72 h, read-out: Cytotoxic concentration IC50, SF-539
Excerpt: as §1, §2

[8] = system: MCF-7; experiment: MTS cytotoxicity assay; conditions: for IC50: Homo sapiens; for Selectivity index IC50 HSF/IC50 MCF-7: from the mean IC50 value for HSF cells
Excerpt: as §1, §2

[9] = system: HCT-15; experiment: MTS cytotoxicity assay; conditions: Homo sapiens, HCT-15, 72 h, read-out: Cytotoxic concentration IC50, HCT-15
Excerpt: as §1, §2

[10] = system: SNB-19; experiment: MTS cytotoxicity assay; conditions: Homo sapiens, SNB-19, 72 h, read-out: Cytotoxic concentration IC50, SNB-19
Excerpt: as §1, §2

[11] = system: A-498; experiment: MTS cytotoxicity assay; conditions: Homo sapiens, A498, 72 h, read-out: Cytotoxic concentration IC50, A-498
Excerpt: as §1, §2

[12] = system: MDA-MB-231; experiment: MTS cytotoxicity assay; conditions: Homo sapiens, MDA-MB-231, 72 h, read-out: Cytotoxic concentration IC50, MDA-MB-231
Excerpt: as §1, §2

[13] = system: M14; experiment: MTS cytotoxicity assay; conditions: Homo sapiens, M14, 72 h, read-out: Cytotoxic concentration IC50, M14
Excerpt: as §1, §2

[14] = MTS cytotoxicity assay
Excerpt: as §1, §2

[15] = system: NCI-H322M; experiment: MTS cytotoxicity assay; conditions: Homo sapiens, 72 h, read-out: Cytotoxic concentration IC50, NCI-H322M
Excerpt: as §1, §2

[16] = system: genomic DNA from chicken erythrocytes; experiment: Agarose gel electrophoresis of DNA compositions; format: binding; conditions: DNA 30 μg/mL; for Interaction with DNA (in words): 11.2 to 180 μM
Description: The mixtures were then incubated for 30 min. To visualize nucleic acids, the intercalating dye SYBR Green was added at a ratio of 1:10 to the final volume, and the mixtures were incubated in the dark for an additional 15 min. […] The electrolyte used was TAE buffer (pH 8.0).

[17] = PC-3, 72 h, read-out: Cytotoxic concentration IC50, PC-3
[18] = HCT-116, 72 h, read-out: Cytotoxic concentration IC50, HCT-116
[19] = HCT-116, read-out: IC50, HCT-116
[20] = MCF7, 72 h, read-out: Cytotoxic concentration IC50, MCF-7
[21] = test concentration selected based on MTS data

| Structure (SMILES) | Changes in the optical spectrum on interaction with genomic DNA (in words) [1] | EC50 [2] [nM] | Trolox Equivalent Antioxidant Capacity (TEAC) [2] | Penetration into the cell nuclei (in words) [3] | IC50 [4, 17] [nM] | IC50 ([4]; PC-3, read-out: IC50, PC-3) [nM] | IC50 [5, 18] [nM] | IC50 [5, 19] [nM] | IC25, HCT-116 [5] [nM] | IC75, HCT-116 [5] [nM] | Inhibition of C2C12 cell proliferation [6] [%] | IC50 [7] [nM] | IC50 [8, 20] [nM] | IC50 [9] [nM] | IC50 [10] [nM] | IC50 [11] [nM] | IC50 [12] [nM] | IC50 [13] [nM] | IC50 [15] [nM] | Shift of the Absorption Maximum Relative to Control ([1]; DNA concentration 15 µg/mL) [nm] | other results |
| --- | --- | --- | --- | --- | --- | --- | --- | --- | --- | --- | --- | --- | --- | --- | --- | --- | --- | --- | --- | --- | --- |
| COc1cccc2c1C(=O)c1c(O)c3c(c(O)c1C2=O)C[C@@](O)(C(=O)CO)C[C@@H]3O[C@H]1C[C@H](N)[C@H](O)[C@H](C)O1 [DOX, Doxorubicin, reference compound] | significant changes | 6700 ± 700 | 2.34 | efficiently permeates and accumulates in the cell nuclei | 1050 ± 620 | 1100 | 1100 ± 640 | 1000 | 250 | 2500 | ≥ 95 | 530 ± 350 | 90 ± 50 | 460 ± 160 | 100 ± 40 | 350 ± 60 | 730 ± 250 | 160 ± 20 | 2460 ± 1180 | – | IC50 ([8]; MCF7, read-out: IC50, MCF-7): 50 nM; IC10, MCF-7 [8, 21]: 10 nM; IC25, MCF-7 [8, 21]: 20 nM; IC70, MCF-7 [8, 21]: 200 nM; IC50 at 72 h ([14]; human, HSF primary skin fibroblasts): 1120 ± 660 nM; IC50 at 72 h ([14]; mouse, C2C12 immortalized myoblasts): 45 ± 4 nM; Concentration sufficient to completely prevent migration of DNA ([16]; agarose gel): 15 µM |
| COc1cccc2c1C(=O)c1c(O)c3c(c(O)c1C2=O)CC(O)(C(=O)CO)CC3OC1CC(NC(=O)c2cnc(C)c3c2COC(C)(C)O3)C(O)C(C)O1 (stereo not shown) [DOX-1, N-(3-hydroxy-2-methyl-6-((3,5,12-trihydroxy-3-(2-hydroxyacetyl)-10-methoxy-6,11-dioxo-1,2,3,4,6,11-hexahydrotetracen-1-yl)oxy)tetrahydro-2H-pyran-4-yl)-2,2,8-trimethyl-4H-[1,3]dioxino[4,5-c]pyridine-5-carboxamide] | no significant changes | 4500 ± 500 | 3.49 | do not penetrate the cell nuclei | 5410 ± 880 | 6100 | 4630 ± 550 | 4000 | 1700 | 9000 | ≥ 95 | 2060 ± 180 | 1880 ± 480 | > 100000 | 5080 ± 3400 | 4460 ± 3190 | 4050 ± 960 | 4290 ± 1560 | 7200 ± 4760 | 2 | Shift of the Absorption Maximum Relative to Control ([1]; DNA concentration 20 µg/mL): 1 nm; Shift of the Absorption Maximum Relative to Control ([1]; DNA concentration 30 µg/mL): 4 nm; Shift of the Absorption Maximum Relative to Control ([1]; DNA concentration 60 µg/mL): 2 nm; Selectivity index IC50 HSF/IC50 PC-3 [4]: 1.12 ± 0.24; IC25, PC-3 ([4]; concentration and corresponding IC used in the Comet assay): 3 µM (IC25); Times reduced cytotoxicity compared to doxorubicin, HCT-116 [5]: 4.2; Selectivity index IC50 HSF/IC50 HCT-116 [5]: 1.28 ± 0.18; Times less potent than unmodified doxorubicin, MCF-7 ([8]; MTS assay): 20.9; Selectivity index IC50 HSF/IC50 MCF-7 ([8]; MTS assay): 3.32 ± 0.87; IC50 at 72 h ([14]; mouse): 230 ± 160 nM; Interaction with DNA (in words) [16]: do not interact with DNA |
| COc1cccc2c1C(=O)c1c(O)c3c(c(O)c1C2=O)CC(O)(C(=O)CO)CC3OC1CC(NC(=O)/C=C/c2cnc(C)c3c2COC(C)(C)O3)C(O)C(C)O1 (stereo not shown) [DOX-2, (E)-N-(3-hydroxy-2-methyl-6-((3,5,12-trihydroxy-3-(2-hydroxyacetyl)-10-methoxy-6,11-dioxo-1,2,3,4,6,11-hexahydrotetracen-1-yl)oxy)tetrahydro-2H-pyran-4-yl)-3-(2,2,8-trimethyl-4H-[1,3]dioxino[4,5-c]pyridin-5-yl)acrylamide] | no significant changes | 18900 ± 6800 | 0.83 | do not penetrate the cell nuclei | 1970 ± 310 | – | 1430 ± 290 | – | – | – | – | 1740 ± 110 | 770 ± 150 | > 200000 | 870 ± 100 | 41700 ± 7420 | 1580 ± 1030 | 2610 ± 240 | > 200000 | 0 | Shift of the Absorption Maximum Relative to Control ([1]; DNA concentration 20 µg/mL): 0 nm; Shift of the Absorption Maximum Relative to Control ([1]; DNA concentration 30 µg/mL): 0 nm; Shift of the Absorption Maximum Relative to Control ([1]; DNA concentration 60 µg/mL): 1 nm; Selectivity index IC50 HSF/IC50 PC-3 [4]: >100; Times reduced cytotoxicity compared to doxorubicin, HCT-116 [5]: 1.3; Selectivity index IC50 HSF/IC50 HCT-116 [5]: >140; inhibition at 200 µM ([6]; Mus musculus, C2C12, read-out: Inhibition of C2C12): ≤ 60%; Selectivity index for MCF-7, times greater than that of doxorubicin ([8]; MTS assay): 15; Times less potent than unmodified doxorubicin, MCF-7 ([8]; MTS assay): 8.5; Selectivity index IC50 HSF/IC50 MCF-7 ([8]; MTS assay): >260; IC50 at 72 h ([14]; human): > 200000 nM; IC50 at 72 h ([14]; mouse): 2800 ± 1710 nM; Interaction with DNA (in words) [16]: do not interact with DNA |

— publication PMC10970924 (Life, 2024)
